Assay: hygroscopicity analysis (desiccator, relative humidity 82%, 40° C., 24 hours)
Format: physicochemical
Settings: for amount of absorbed moisture: 1 g sample, relative humidity 82% (saturated aqueous potassium chloride), after 24 hours; for deliquescence in the hygroscopicity analysis: relative humidity 82%, 24 hours, macroscopic observation
Description: The term “nondeliquescent” used in the specification means that a substance is nonhygroscopic (in general, an amount of absorbed moisture is 5% or less at 40° C. under 82% of relative humidity after 24 hours), or not suffered from deliquescence by moisture absorption. More specifically, the term means that no deliquescence is macroscopically observed in a part or whole surface of a solid calcium pantothenate at 40° C. under 82% of the relative humidity within 24 hours. The calcium pantothenate of the present invention comprising an amount of a crystalline component sufficient to prevent deliquescence is an example of the nondeliquescent and crystalline calcium pantothenate.
This product was further dried by using a normal-pressure warm-air dryer at 80° C. for 30 minutes and milled in a mortar, and then sized through a filter No.83 and subjected to a hygroscopicity analysis. The sample (1 g) was placed in a desiccator adjusted to relative humidity of 82% with a saturated aqueous solution of potassium chloride at 40° C., and an amount of absorbed moisture after 24 hours was determined. […] An amorphous was dried in the same manner and the amount of absorbed moisture was determined under the same conditions. […] Moreover, the powder X-ray diffraction analysis of the aforementioned product gave the characteristic peak indicated by the arrow, which verified that the product was a crystalline substance containing the monohydrate (FIG. 1).

| Substance | amount of absorbed moisture | deliquescence in the hygroscopicity analysis |
| --- | --- | --- |
| monocalcium bis[(R)-N-(2,4-dihydroxy-3,3-dimethylbutyryl)-β-alaninate] [amorphous calcium pantothenate, reference compound] | 7.0% | macroscopically apparent deliquescence of the surface was observed |
| calcium pantothenate [Example 2] | 0.7% | no deliquescence was observed |
| calcium pantothenate [Example 3] | 0.8% | no deliquescence was observed |

Source: patent US6582940B1, “Method for producing calcium pantothenate” (Daiichi Fine Chemical Co., Ltd., priority 1998, dated 2003)
